# Experimental data taken from patent US8785388B2, “TAT-BH3 methods for treating arthritis” (Saint Louis University, priority 2007, dated 2014).
# Square brackets hold non-standard residues; d marks the D form. Peptide text beside a SMILES is read from it. Orn = NCCC[C@H](N)C(=O)O
# Legend:
# IL-1β, TNFα, MCP-1, KC = test: Circulating cytokine levels in serum; format: in vivo, mice; conditions: between saline, TAT-inactive BH3 and TAT-BH3 groups
# Procedure: (§1) At each time point and prior to euthanasia, the degree of arthritis as indicated by joint swelling was quantitated by measuring two perpendicular diameters of the ankles using a caliper (Lange Caliper: Cambridge Scientific Industries, Cambridge Mass.). Joint circumference was calculated using the geometric formula of ellipse circumference (2πX √(a^2+b^2)/2). Following euthanasia, serum was isolated from peripheral blood by cardiac stick and ankle joints were removed. One of the ankle joints was fixed in 10% neutral buffered formalin for 24 hours, decalcified in EDTA-decalcification buffer for two weeks, embedded in paraffin, and sectioned. The other ankle joint was placed in liquid nitrogen, grounded into a fine powder by mortal and pestle, digested in protein lysis buffer ([…], 0.5% NP-40, 50 mM Tris, and 2 mM EDTA) in the presence of phosphatase and protease inhibitors, and homogenized on ice for 20 seconds. To examine any toxicity due to systemic delivery of TAT-Bim peptides, alkaline phosphatase (ALP), […] (AST), alanine aminotransferase (ALT), and blood urea nitrogen levels were measured.
# TAT-BH3 peptides treatment reduces the numbers of myeloid cells in arthritic joints. […] To this end, the numbers of polymorphonuclear cell and macrophages in saline and BH3 peptide arthritic mice were quantified. […]
# [1] = Toxicity: serum ALP, AST, ALT, blood urea nitrogen and liver histology in arthritic mice; format: in vivo
# Procedure: as §1
# (§2) Paraffin embedded ankle or liver sections were stained with hematoxylin and eosin (H&E), Safranin O and methyl green. Histopathological scoring was performed and ankle sections were evaluated by examining at least 3 sections/ankle and 3 fields/section at 400× magnification. H&E ankle sections were scored on a 0-5 scale for inflammation, with 0=normal, 1=minimal infiltration, 2=mild infiltration, 3=moderate infiltration, […], mad 5=severe infiltration. Bone erosion was scored on a 0-5 scale by viewing H&E ankle sections, with 0=no or normal bone resorption, 1=small areas of resorption, 2=more numerous areas of resorption, 3=obvious resorption, 4=full thickness defects in the bone without distortion of the profile, 5=full thickness defects in the bone with distortion of the profile. H&E ankle stained sections were scored on a 0-5 scale for pannus formation, with 0=no pannus formation, 1=minimal pannus formation, 2=mild pannus formation, 3=moderate pannus formation, 4=marked pannus formation, and 5=severe pannus formation. H&E and Safranin 0 and methyl green sections were scored on a 0-5 scale for cartilage damage, with 0=no damage, 1-2=superficial cartilage destruction, 3-4=cartilage destruction to middle zone, 5=cartilage destruction to tide mark. Polymorphonuclear (PMN) leukocyte infiltration: 0=no PMNs, 1=rare scattered PMNs, 2=more frequent scattered PMNs, 3=small clusters of PMNs, 4=larger clusters of PMNs, mad 5=sheets of PMNs (abscess). Histopathological scoring was conducted on an Olympus BX40 microscope (1000×). Photographs were taken on a Nikon microscope equipped with the Nikon digital camera DMX 1200.
# peripheral blood cells = test: Peripheral blood cell counts (flow cytometry, hematology analyzer); format: in vivo, mice; conditions: as compared to TAT-inactive BH3 and saline
# [2] = test system: mature neutrophils in bone marrow; test: Bone marrow neutrophil numbers (flow cytometry); format: in vivo, mice; conditions: as compared to saline and TAT-inactive BH3
# Procedure: Peripheral blood and bone marrow were isolated from mice following euthanasia. Total leukocyte numbers were determined using an automated hematology analyzer ABX Pentra 60 (Diamond Diagnostics, Inc, Holliston, Mass.). The red blood cells in peripheral blood were lysed and the remaining cells were fixed with BD FACS lysing solution (BD Biosciences, Pharmingen) following incubation with antibodies. Bone marrow cells were isolated by flushing Dulbecco's Modified Eagle Medium (DMEM) (Gibco, Grand Island, N.Y.) through the tibias and red blood cells were lysed with BD PharM Lyse (BD Biosciences, Pharmingen) prior to incubation with antibodies. Cells with incubated with Fc Block (BD Biosciences, Pharmingen) then stained with fluorochrome conjugated antibodies to CD45, CD11b, Gr-1, CD62L, Ly-6C, Ly-6G, CD31 (BD Biosciences, Pharmingen) or isotype control antibodies for 30 minutes. Cells were acquired on a BD LSRII (BD Biosciences, Pharmingen) using Diva Software at the Saint Louis University Core Flow Cytometry Facility. All analysis was performed using FlowJo software (Tree Star Inc.).
# TAT-BH3 peptides decrease the number of neutrophils in circulation and in bone marrow. We have shown that numbers of neutrophils and macrophages are reduced in the joints of mice treated with TAT-BH3 peptides.
# [3] = test system: IL-1β, TNFα, MCP-1, KC, MMP-3; test: ELISA of pro-inflammatory molecules in ankle extracts; format: in vivo, mouse; design: IL-1β / TNFα / MCP-1 / KC / MMP-3: unit not given here; conditions: ankle joints
# Procedure: as §1
# For detection of mouse IL-1β, TNFα, MCP-1, KC, or MMP-3 in ankle extracts, sandwich ELISAs were performed according to the manufacturer's instructions (R & D Systems, Minneapolis, Minn.). The sensitivity for all cytokines was 15.6 pg/mL for IL-1β and KC, 7.813 pg/mL for TNFα and MCP-1, and 0.312 ng/mL for MMP3. ELISAs were quantitated by absorbance at 450 nm on a microplate reader (BioRad, Hercules, Calif.). Data obtained using ELISA on ankle extracts were normalized by the total protein concentration (μg/μL) for each individual ankle extract.
# Mice were euthanized at seven days post-serum transfer. Ankle joints from each mouse were isolated, snap frozen, grounded into a fine powder, lysed, and examined for IL-1β, TNFα, MCP-1, KC, and MMP-3 production using an ELISA. Data are shown as μg/μL per joint. Values represent the mean±standard error, which were compared by Student's t-test.
# [4] = test system: K/B×N serum transfer-induced arthritis; test: Histopathological scoring of ankle sections (H&E, safranin O/methyl green); format: in vivo, mice
# Procedure: as §2
# To accurately assess the degree of inflammation and destruction of cartilage and bone, ankle sections were examined using a histopathological scoring system on hematoxylin and eosin (H& E) or safranin O-methyl green stained ankle sections.
# [5] = TAT-BH3 vs TAT-inactive BH3 and saline
# [6] = as compared to TAT-inactive BH3
# [7] = seven days post-serum transfer, mean ± standard error
# [8] = as compared to saline or TAT-inactive BH3
structure (smiles),measurement,setting,value
CC[C@H](C)[C@H](NC(=O)[C@H](CCCNC(=N)N)NC(=O)[C@H](CCCNC(=N)N)NC(=O)[C@H](CC(C)C)NC(=O)[C@H](CCC(=O)O)NC(=O)[C@H](CCC(N)=O)NC(=O)[C@H](C)NC(=O)[C@@H](NC(=O)[C@H](Cc1c[nH]c2ccccc12)NC(=O)[C@@H](NC(=O)[C@H](CCC(=O)O)NC(=O)[C@H](CCCNC(=N)N)NC(=O)[C@H](CCCNC(=N)N)NC(=O)[C@H](CCCNC(=N)N)NC(=O)[C@H](CCCN)NC(=O)[C@H](CCCNC(=N)N)NC(=O)[C@H](CCCNC(=N)N)NC(=O)[C@H](CCCCN)NC(=O)[C@H](CCCCN)NC(=O)[C@H](CCCNC(=N)N)NC(C)=O)[C@@H](C)CC)[C@@H](C)CC)C(=O)NCC(=O)N[C@@H](CC(=O)O)C(=O)N[C@@H](CCC(=O)O)C(=O)N[C@@H](Cc1ccccc1)C(=O)N[C@@H](CC(N)=O)C(=O)N[C@@H](C)C(=O)N[C@@H](Cc1ccc(O)cc1)C(=O)N[C@@H](Cc1ccc(O)cc1)C(=O)N[C@@H](C)C(=O)N[C@@H](CCCNC(=N)N)C(=O)O [TAT-BH3] (Ac-RKKRR[Orn]RRREIWIAQELRRIGDEFNAYYAR-OH),"circulating levels of IL-1β, TNFα, MCP-1, and KC in serum","IL-1β, TNFα, MCP-1, KC",no differences
same,ALT levels,[1]; [5],statistical difference
same,BUN levels,[1]; [5],statistical difference
same,increase in ALP levels,[1]; [6],1.7 fold
same,increase in AST levels,[1]; [6],1.5 fold
same,increase in ALP levels,[1]; as compared to saline,1.4 fold
same,increase in AST levels,[1]; as compared to saline,1.3 fold
same,liver histology,[1]; liver sections of arthritic mice,no gross histologic abnormalities
same,number of splenocytes,peripheral blood cells,did not reduce
same,decrease in numbers of mature neutrophils in bone marrow,[2],50%
same,IL-1β,[3]; [7],522 ± 127
same,KC,[3]; [7],308 ± 78
same,MCP-1,[3]; [7],131 ± 28
same,MMP-3,[3]; [7],9 ± 3
same,TNFα,[3]; [7],4.5 ± 0.3
same,change in level of TNFα,[3]; vs saline or TAT-inactive BH3,no change
same,decrease in level of IL-1β,[3]; vs saline or TAT-inactive BH3,37%
same,levels of MMP-3 reduced,[3]; vs saline or TAT-inactive BH3,47%
same,production of KC diminished,[3]; vs saline or TAT-inactive BH3,28%
same,production of MCP-1 diminished,[3]; vs saline or TAT-inactive BH3,47%
same,reduction in PMN score,[4]; as compared to TAT-inactive BH3 or saline,69%
same,decrease in bone erosion score,[4]; [8],71%
same,reduction in inflammation,[4]; [8],72%
same,suppression of pannus formation,[4]; [8],79%
